Test results published in ChEMBL document CHEMBL1275247, “Pharmacokinetics and safety of CXA-101, a new antipseudomonal cephalosporin, in healthy adult male and female subjects receiving single- and multiple-dose intravenous infusions” (Antimicrob Agents Chemother, 2010).

Experiments:
[1] = Tmax in healthy human at 2000 mg, iv administered as single dose as 1 hr iv infusion; type: ADME, organism-based; conditions: in vivo
[2] = AUC (0 to infinity) in healthy human at 1500 mg, iv administered as single dose as 1 hr iv infusion; type: ADME, organism-based; design: dose 1500 mg, time infinity, route intravenous; conditions: plasma
[3] = Drug recovery in urine of healthy human at 1500 mg, iv administered as single dose as 1 hr iv infusion after 24 hrs; type: ADME, organism-based; conditions: read-out: Activity
[4] = Drug recovery in urine of healthy human at 250 mg, iv administered as single dose as 1 hr iv infusion after 24 hrs; type: ADME, organism-based; conditions: read-out: Activity
Homo sapiens [5] = test: Toxicity in healthy human assessed as occurrence of abdominal pain at 1000 mg, iv administered as single dose as 1 hr iv infusion; type: organism-based, Abdomen; conditions: in vivo
Homo sapiens [6] = test: Toxicity in healthy human assessed as occurrence of diarrhea at 500 mg, iv administered as 1 hr infusion every 8 hrs for 10 days; type: organism-based; conditions: in vivo
[7] = Cmax in healthy human at 500 mg, iv administered as 1 hr infusion every 8 hrs for 10 days measured on day 1; type: ADME, organism-based; design: dose 500 mg, route intravenous; conditions: in vivo
[8] = Cmax in healthy human at 500 mg, iv administered as 1 hr infusion every 8 hrs for 10 days measured on day 10; type: ADME, organism-based; design: dose 500 mg, route intravenous; conditions: in vivo
[9] = Tmax in healthy human at 1500 mg, iv administered as 1 hr infusion every 12 hrs for 10 days measured on day 10; type: ADME, organism-based; conditions: in vivo
[10] = AUC (0 to infinity) in healthy human at 500 mg, iv administered as 1 hr infusion every 8 hrs for 10 days measured on day 1; type: ADME, organism-based; design: dose 500 mg, route intravenous, time infinity; conditions: plasma
[11] = AUC (0 to infinity) in healthy human at 500 mg, iv administered as 1 hr infusion every 8 hrs for 10 days measured on day 10; type: ADME, organism-based; design: dose 500 mg, time infinity, route intravenous; conditions: plasma
[12] = AUC (0 to infinity) in healthy human at 1500 mg, iv administered as 1 hr infusion every 12 hrs for 10 days measured on day 10; type: ADME, organism-based; design: dose 1500 mg, route intravenous, time infinity; conditions: plasma
[13] = Clearance in healthy human at 1000 mg, iv administered as 1 hr infusion every 8 hrs for 10 days measured on day 10; type: ADME, organism-based; conditions: in vivo
[14] = Volume of distribution at steady state in healthy human at 1500 mg, iv administered as 1 hr infusion every 12 hrs for 10 days measured on day 10; type: ADME, organism-based; conditions: in vivo

- Tmax [1]: 1.06 h
- AUC(0-inf) [2]: 243 µg·h/mL
- dose excreted at 24 h [3]: 93.4%
- dose excreted at 24 h [4]: 97.1%
- Cmax [7]: 34300 ng/mL
- Cmax [8]: 33300 ng/mL
- Tmax [9]: 1 h
- AUC(0-inf) [10]: 88.1 µg·h/mL
- AUC(0-inf) [11]: 82.9 µg·h/mL
- AUC(0-inf) [12]: 207 µg·h/mL
- clearance [13]: 116 mL/min
- Vd [14]: 18.1 L
Compound: Cn1c(N)c(NC(=O)NCCN)c[n+]1CC1=C(C(=O)O)N2C(=O)[C@@H](NC(=O)/C(=N\OC(C)(C)C(=O)[O-])c3nsc(N)n3)[C@H]2SC1 [CEFTOLOZANE]
- Activity (Homo sapiens [5]): Non-toxic
- Activity (Homo sapiens [6]): Non-toxic
